# Assay results taken from patent US20150038415A1, “PROCESS FOR THE MANUFACTURING OF A DRUG DELIVERY SYSTEM BASED ON A POLYMER COMPRISING A DISPERSED BIOACTIVE AGENT” (DSM IP Assets B.V., priority 2011, published 2015).
# “Also recorded” adds a separate entry of the source.
# Tested on: Nb2 (rat lymphoma) cells
# Assay: Bioactivity of released rHGH by Nb2 cell proliferation assay
# Format: cell-based
# Description: Bioactivity of rHGH present in release samples was assessed by measuring its influence on the proliferation of Nb2 (rat lymphoma) cells.^1 1 Bozzola, M. et. al. Evaluation of growth hormone bioactivity using the Nb2 cell bioassay in children with growth disorders. J. Endocrinol Invest.1998, 21, 765-770
# The method used is described below:^2 2 Tanaka. T. et. al. A new sensitive and specific bioassay for lactogenic hormones: measurement of prolactin and growth hormone in human serum. J. Clin. Endocrinol. Metab.1980, 51, 1058-1063 […]
# Cells were then counted with a Guava Easycyte (Millipore) capillary cytometer using Viacount reagent (Millipore) to stain cells, according to the recommendations of the manufacturer. […]
# Samples originating from the release experiments were diluted in incubation medium to reach an expected (according to HPLC quantification) concentration of rHGH between 80 and 280 pg/mL(concentration range in which growth of Nb2 cells is rHGH concentration-dependent). […]
# After incubation, cells were stained with 50 uL Viacount reagent and viable cells were counted by capillary cytometry.
# Bioactivity of rHGH released from the fibers was measured through use of the cell-proliferation assay described above. Release samples were introduced to the cell culture medium and the effect of rHGH on cell proliferation was measured via cell counting with capillary cytometry.
substance,measurement,setting,value
"rHGH: lyophilized powder of recombinant human growth hormone, dispersed in PEA-III-Ac-Bz film cut into fibers",Bioactivity of rHGH released from the fibers (cell proliferation assay),"rHGH released from PEA-III-Ac-Bz fibers into release medium (PBS pH 7.4 with BSA and penicillin) at 37° C., Nb2 cells incubated 72 hours",retained; also recorded: bioactive; also recorded: retains its bioactivity
same,Cell response to release samples (cell counting with capillary cytometry),"release samples taken at 1 h, 3 h, 6 h, 24 h & 48 h from PEA-III-Ac-Bz fibers with approximately 1-2 wt % rHGH",positive cell response
